Results on 16 compounds are retold here after patent publication US10544130B2, “Metallo-beta-lactamase inhibitors” (priority 2015, dated 2020).

Data set [1] has as its system Pseudomonas aeruginosa PAO1 MB9798 (efflux+, IMP-1). As to conditions: ratio MITC95 PA 9798/MITC95 PA 9799; imipenem at 2 μg/mL. The gist of the method:
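Isogenic PAO1 pair (efflux+ MB9798, efflux− MB9799, both IMP-1) tested by microbroth MIC with fixed imipenem and/or ceftazidime, usually at CLSI breakpoint, plus fixed class A/C inhibitor against AmpC. MBL inhibitor titrated; concentration restoring susceptibility recorded and fold difference between strains taken as efflux extent.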

Data set [2] deals with Escherichia coli expressing NDM-1 (CLB30005, CLB30016). It counts as cell-based. As to conditions: with imipenem 1 μg/ml; 95% inhibition of bacterial growth. The gist of the method:
(§1)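 Growth read by absorbance after 22–24 h at 35 °C in CAMHB, with test compound alone or combined with 1 μg/ml imipenem. Inocula came from overnight 35 °C blood-agar colonies, set to a defined OD600 and diluted 1:100. Value is the inhibitor concentration giving synergy.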

The subject of data set [3] is Serratia marcescens expressing IMP-1 (CL5741). It counts as cell-based. The note with it: with imipenem 1 μg/ml; 95% inhibition of bacterial growth. In a few lines: as §1
Data set [4] relates to Klebsiella pneumoniae expressing VIM-1 (IHMA599644). It counts as cell-based. As to conditions: with imipenem 1 μg/ml; 95% inhibition of bacterial growth. In a few lines: as §1

Regarding `NC[C@@H](CO)NS(=O)(=O)c1ccc(-c2cccc(N)n2)c(-c2nn[nH]n2)c1S(N)(=O)=O` [Example 382, (S)—N1-(1-amino-3-hydroxypropan-2-yl)-4-(6-aminopyridin-2-yl)-3-(2H-tetrazol-5-yl)benzene-1,2-disulfonamide], in data set [1], the Efflux ratio worked out at 1.00. Besides, in data set [2], the “Escherichia coli (NDM-1) MITC95” value came out at 1.563 µM. In addition, the “Serratia marcescens (IMP-1) MITC95” value in data set [3] stood at 1.563 µM. The “Klebsiella pneumoniae (VIM-1) MITC95” value in data set [4] came out at 3.125 µM.
`NCCNS(=O)(=O)c1ccc(-c2cccc(NC[C@@H](O)CN)c2)c(-c2nn[nH]n2)c1S(N)(=O)=O` [Example 352, (S)-3′-((3-amino-2-hydroxypropyl)amino)-N4-(2-aminoethyl)-2-(2H-tetrazol-5-yl)-[1,1′-biphenyl]-3,4-disulfonamide]: in data set [1], the Efflux ratio turned out to be 2.00. Further, the “Escherichia coli (NDM-1) MITC95” value in data set [2] turned out to be 0.7813 µM. In addition, the “Serratia marcescens (IMP-1) MITC95” value in data set [3] worked out at 1.563 µM. Besides, the “Klebsiella pneumoniae (VIM-1) MITC95” value in data set [4] came out at 1.563 µM.
In the case of `NC[C@H](CO)NS(=O)(=O)c1ccc(-c2ccnc(N)c2)c(-c2nn[nH]n2)c1S(N)(=O)=O` [Example 362, (R)—N1-(1-amino-3-hydroxypropan-2-yl)-4-(2-aminopyridin-4-yl)-3-(2H-tetrazol-5-yl)benzene-1,2-disulfonamide], in data set [1], the Efflux ratio is reported as 2.00. For the same compound, the “Escherichia coli (NDM-1) MITC95” value in data set [2] was determined as 1.563 µM. Besides, the “Serratia marcescens (IMP-1) MITC95” value in data set [3] turned out to be 1.563 µM. The “Klebsiella pneumoniae (VIM-1) MITC95” value in data set [4] came out at 3.125 µM.
On to `NCCNS(=O)(=O)c1ccc(-c2cccc(NC[C@H](O)CN)c2)c(-c2nn[nH]n2)c1S(N)(=O)=O` [Example 351, (R)-3′-((3-amino-2-hydroxypropyl)amino)-N4-(2-aminoethyl)-2-(2H-tetrazol-5-yl)-[1,1′-biphenyl]-3,4-disulfonamide], for which the Efflux ratio in data set [1] is 2.00. The “Escherichia coli (NDM-1) MITC95” value in data set [2] came to 0.7813 µM. For the same compound, in data set [3], the “Serratia marcescens (IMP-1) MITC95” value was determined as 1.563 µM. Also, in data set [4], the “Klebsiella pneumoniae (VIM-1) MITC95” value stood at 1.563 µM.
Turning to `NCCNS(=O)(=O)c1ccc(C2=CC(N)CCC2)c(-c2nn[nH]n2)c1S(N)(=O)=O` (stereo not shown) [Example 338, 5′-Amino-N4-(2-aminoethyl)-2-(2H-tetrazol-5-yl)-2′,3′,4′,5′-tetrahydro-[1,1′-biphenyl]-3,4-disulfonamide], in data set [1], the Efflux ratio was 4.00. Besides, in data set [2], the “Escherichia coli (NDM-1) MITC95” value was 1.563 µM. Moreover, the “Serratia marcescens (IMP-1) MITC95” value in data set [3] stood at 1.563 µM. Moreover, in data set [4], the “Klebsiella pneumoniae (VIM-1) MITC95” value came to 1.563 µM.
With `Nc1cc(-c2ccc(S(=O)(=O)N[C@@H]3CCNC3)c(S(N)(=O)=O)c2-c2nn[nH]n2)ccn1` [Example 288, (R)-4-(2-aminopyridin-4-yl)-N1-(pyrrolidin-3-yl)-3-(2H-tetrazol-5-yl)benzene-1,2-disulfonamide], the Efflux ratio in data set [1] was 2.00. The “Escherichia coli (NDM-1) MITC95” value in data set [2] amounted to 0.7813 µM. In addition, in data set [3], the “Serratia marcescens (IMP-1) MITC95” value was 1.563 µM. Moreover, the “Klebsiella pneumoniae (VIM-1) MITC95” value in data set [4] was found to be 1.563 µM.
Take `NCCNS(=O)(=O)c1ccc(-c2cccc(SC[C@@H](O)CN)c2)c(-c2nn[nH]n2)c1S(N)(=O)=O` [Example 357, (S)-5′-(3-amino-2-hydroxypropylthio)-N4-(2-aminoethyl)-2-(2H-tetrazol-5-yl)biphenyl-3,4-disulfonamide]: the Efflux ratio in data set [1] turned out to be 2.00. Besides, in data set [2], the “Escherichia coli (NDM-1) MITC95” value is 0.7813 µM. For the same compound, in data set [3], the “Serratia marcescens (IMP-1) MITC95” value turned out to be 0.7813 µM. Further, in data set [4], the “Klebsiella pneumoniae (VIM-1) MITC95” value was determined as 0.7813 µM.
On to `NCCNS(=O)(=O)c1ccc(-c2cccc3[nH]c([C@H](N)CN)nc23)c(-c2nn[nH]n2)c1S(N)(=O)=O` [Example 335, (R)—N1-(2-aminoethyl)-4-(2-(1,2-diaminoethyl)-1H-benzo[d]imidazole-4-yl)-3-(2H-tetrazol-5-yl)benzene-1,2-disulfonamide], for which the Efflux ratio in data set [1] was found to be 2.00. For the same compound, the “Escherichia coli (NDM-1) MITC95” value in data set [2] worked out at 1.563 µM. Besides, the “Serratia marcescens (IMP-1) MITC95” value in data set [3] was determined as 3.125 µM. In addition, the “Klebsiella pneumoniae (VIM-1) MITC95” value in data set [4] was found to be 3.125 µM.
Turning to `NCCNS(=O)(=O)c1ccc(-c2cccc3[nH]c(CCN)nc23)c(-c2nn[nH]n2)c1S(N)(=O)=O` [Example 337, N1-(2-aminoethyl)-4-(2-(2-aminoethyl)-1H-benzo[d]imidazol-4-yl)-3-(2H-tetrazol-5-yl)benzene-1,2-disulfonamide], in data set [1], the Efflux ratio is recorded as 2.00. Moreover, in data set [2], the “Escherichia coli (NDM-1) MITC95” value is 0.7813 µM. Moreover, the “Serratia marcescens (IMP-1) MITC95” value in data set [3] came to 0.7813 µM. The “Klebsiella pneumoniae (VIM-1) MITC95” value in data set [4] is 0.7813 µM.
Take `Cc1ccc(-c2ccc(S(=O)(=O)NCCN)c(S(N)(=O)=O)c2-c2nn[nH]n2)c2nc(N)[nH]c12` [Example 329, 4-(2-Amino-7-methyl-1H-benzo[d]imidazol-4-yl)-N1-(2-aminoethyl)-3-(2H-tetrazol-5-yl)benzene-1,2-disulfonamide]: the Efflux ratio in data set [1] is listed as 2.00. Moreover, in data set [2], the “Escherichia coli (NDM-1) MITC95” value was determined as 1.563 µM. For the same compound, the “Serratia marcescens (IMP-1) MITC95” value in data set [3] was found to be 1.563 µM. Also, in data set [4], the “Klebsiella pneumoniae (VIM-1) MITC95” value was 1.563 µM.
Take `NCCNS(=O)(=O)c1ccc(-c2cccc(C(=O)NC[C@H](O)CN)c2)c(-c2nn[nH]n2)c1S(N)(=O)=O` [Example 346, (R)—N-(3-amino-2-hydroxypropyl)-4′-(N-(2-aminoethyl)sulfamoyl)-3′-sulfamoyl-2′-(2H-tetrazol-5-yl)-[1,1′-biphenyl]-3-carboxamide]: in data set [1], the Efflux ratio is reported as 2.00. In addition, the “Escherichia coli (NDM-1) MITC95” value in data set [2] worked out at 1.563 µM. Further, the “Serratia marcescens (IMP-1) MITC95” value in data set [3] was 1.563 µM. The “Klebsiella pneumoniae (VIM-1) MITC95” value in data set [4] came to 1.563 µM.
Turning to `NCc1ncc(-c2cccc(-c3ccc(S(=O)(=O)N[C@@H]4CCNC4)c(S(N)(=O)=O)c3-c3nn[nH]n3)c2)[nH]1` [Example 278, (R)-3′-(2-(aminomethyl)-1H-imidazol-5-yl)-N4-(pyrrolidin-3-yl)-2-(2H-tetrazol-5-yl)-[1,1′-biphenyl]-3,4-disulfonamide], in data set [1], the Efflux ratio is 1.00. In data set [2], the “Escherichia coli (NDM-1) MITC95” value was determined as 0.7813 µM. Besides, the “Serratia marcescens (IMP-1) MITC95” value in data set [3] amounted to 0.7813 µM. For the same compound, the “Klebsiella pneumoniae (VIM-1) MITC95” value in data set [4] was 0.7813 µM.
Regarding `NCc1nc2c(-c3ccc(S(=O)(=O)N[C@@H](CN)CO)c(S(N)(=O)=O)c3-c3nn[nH]n3)cccc2[nH]1` [Example 379, (S)—N^1-(1-amino-3-hydroxypropan-2-yl)-4-(2-(aminomethyl)-1H-benzo[d]imidazol-4-yl)-3-(2H-tetrazol-5-yl)benzene-1,2-disulfonamide], the Efflux ratio in data set [1] is reported as 2.00. In addition, the “Escherichia coli (NDM-1) MITC95” value in data set [2] stood at 1.563 µM. In data set [3], the “Serratia marcescens (IMP-1) MITC95” value worked out at 1.563 µM. The “Klebsiella pneumoniae (VIM-1) MITC95” value in data set [4] was 1.563 µM.
Turning to `NCCn1nc2cccc(-c3ccc(S(=O)(=O)N[C@@H]4CCNC4)c(S(N)(=O)=O)c3-c3nn[nH]n3)c2n1` [Example 279, (R)-4-(2-(2-aminoethyl)-2H-benzo[d][1,2,3]triazol-4-yl)-N1-(pyrrolidin-3-yl)-3-(2H-tetrazol-5-yl)benzene-1,2-disulfonamide], the Efflux ratio in data set [1] is on record as 1.00. Also, in data set [2], the “Escherichia coli (NDM-1) MITC95” value amounted to 0.7813 µM. For the same compound, the “Serratia marcescens (IMP-1) MITC95” value in data set [3] amounted to 0.7813 µM. Moreover, in data set [4], the “Klebsiella pneumoniae (VIM-1) MITC95” value turned out to be 0.7813 µM.
For `NCCN1CC[C@@H](NS(=O)(=O)c2ccc(-c3cccc4[nH]c(N)nc34)c(-c3nn[nH]n3)c2S(N)(=O)=O)C1` [Example 246, (R)-4-(2-amino-1H-benzo[d]imidazol-4-yl)-N1-(1-(2-aminoethyl)pyrrolidin-3-yl)-3-(2H-tetrazol-5-yl)benzene-1,2-disulfonamide], the Efflux ratio in data set [1] is listed as 2.00. Further, in data set [2], the “Escherichia coli (NDM-1) MITC95” value stood at 0.7813 µM. Also, the “Serratia marcescens (IMP-1) MITC95” value in data set [3] turned out to be 1.563 µM. In addition, in data set [4], the “Klebsiella pneumoniae (VIM-1) MITC95” value stood at 1.563 µM.
`Cn1nc2cccc(-c3ccc(S(=O)(=O)N[C@@H]4CCNC4)c(S(N)(=O)=O)c3-c3nn[nH]n3)c2n1` [Example 281, (R)-4-(2-methyl-2H-benzo[d][1,2,3]triazol-4-yl)-N1-(pyrrolidin-3-yl)-3-(2H-tetrazol-5-yl)benzene-1,2-disulfonamide]: the Efflux ratio in data set [1] is reported as 2.00. In addition, in data set [2], the “Escherichia coli (NDM-1) MITC95” value came to 1.563 µM. The “Serratia marcescens (IMP-1) MITC95” value in data set [3] was determined as 1.563 µM. The “Klebsiella pneumoniae (VIM-1) MITC95” value in data set [4] amounted to 3.125 µM.
